Source: patent US9695155B2, “Herbicidal substituted pyrimidinyloxy benzene compounds” (E. I. DU PONT DE NEMOURS AND COMPANY, priority 2013, dated 2017)

Experiments:
kochia = experiment: Test C postemergence; assay type: in vivo, Kochia scoparia; settings: Bassia scoparia, post-emergence
How it was run: (§1)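 Visual ratings on a 0–100 scale (100 = complete control) were made versus untreated controls after 13–15 greenhouse days. Chemicals in a surfactant-containing non-phytotoxic solvent were applied either preemergence to seeds in loam–sand soil or postemergence to 1- to 4-leaf plants 2–18 cm tall.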

yellow nutsedge [1] = experiment: Test C postemergence; assay type: in vivo, Cyperus esculentus; settings: Cyperus, post-emergence
How it was run: as §1

giant foxtail [2] = experiment: Test C preemergence; assay type: in vivo, Setaria faberii; settings: Setaria faberi, pre-emergence
How it was run: as §1

pigweed [3] = experiment: Test A preemergence; assay type: in vivo, Amaranthus retroflexus; settings: Amaranthus retroflexus, pre-emergence, 240 h, read-out: Pigweed plant response rating
How it was run: (§2)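 Visual injury scored 0–100 (100 = complete control) against untreated controls about 10 days after treatment in a greenhouse. Test chemicals, formulated with surfactant in non-phytotoxic solvent, were sprayed on soil preemergence or on 2-10 cm, one- to two-leaf plants postemergence.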

corn = experiment: Test C postemergence; assay type: in vivo, Zea mays; settings: Zea mays, post-emergence
How it was run: as §1

Italian ryegrass = experiment: Test C postemergence; assay type: in vivo, Lolium multiflorum; settings: Lolium multiflorum, post-emergence
How it was run: as §1

yellow nutsedge [4] = experiment: Test C preemergence; assay type: in vivo, Cyperus esculentus; settings: Cyperus, pre-emergence
How it was run: as §1

galium = experiment: Test C postemergence; assay type: in vivo, Galium aparine; settings: Galium, post-emergence
How it was run: as §1

pigweed [5] = experiment: Test C preemergence; assay type: in vivo, Amaranthus retroflexus; settings: Amaranthus retroflexus, pre-emergence
How it was run: as §1

wheat, winter = experiment: Test C postemergence; assay type: in vivo, Triticum aestivum; settings: Triticum aestivum, post-emergence
How it was run: as §1

velvetleaf = experiment: Test A postemergence; assay type: in vivo, Abutilon theophrasti; settings: Abutilon theophrasti, post-emergence, 240 h
How it was run: as §2

giant foxtail [6] = experiment: Test A preemergence; assay type: in vivo, Setaria faberii; settings: Setaria faberi, pre-emergence, 240 h, read-out: Foxtail, Giant plant response rating
How it was run: as §2

rice = experiment: Test B flooded paddy test; assay type: in vivo, Oryza sativa; settings: Oryza sativa; Flood, 250 g ai/ha; 0 to 100 scale where 0 is no effect and 100 is complete control; read-out: Plant response rating, Rice
How it was run: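 Compound added straight to paddy water, with pots kept flooded 3 cm above soil, on plants grown to the 2-leaf stage. Visual scoring 0-100 (100 = complete control) against untreated controls after 13 to 15 greenhouse days.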

[7] = 125 g ai/ha, 0 to 100 scale where 0 is no effect and 100 is complete control
[8] = 500 g ai/ha, 0 to 100 scale, 0 no effect, 100 complete control, approx. 10 days

Clc1cnc(Oc2ccccc2-n2cc(Br)cn2)nc1 [Compound 7, 2-[2-(4-bromo-1H-pyrazol-1-yl)phenoxy]-5-chloropyrimidine]
pest or weed control at 125 g/ha (kochia; 125 g ai/ha, postemergence, read-out: Plant response rating (0 to 100), Kochia): 100%
pest or weed control at 250 g/ha (kochia; 250 g ai/ha, postemergence, read-out: Plant response rating (0 to 100), Kochia): 100%
pest or weed control at 31 g/ha (kochia; Postemergence, 31 g ai/ha, scale 0 to 100 (0 no effect, 100 complete control), 13 to 15 days, read-out: Plant response rating, Kochia): 98%
pest or weed control at 62 g/ha (kochia; Postemergence, 62 g ai/ha, scale 0 to 100 (0 no effect, 100 complete control), read-out: Plant response rating, Kochia): 98%
pest or weed control at 125 g/ha (yellow nutsedge [1]; 125 g ai/ha, postemergence, read-out: Plant response rating (0 to 100), Nutsedge, Yellow): 15%
pest or weed control at 250 g/ha (yellow nutsedge [1]; 250 g ai/ha, postemergence, read-out: Plant response rating (0 to 100), Nutsedge, Yellow): 20%
pest or weed control at 31 g/ha (yellow nutsedge [1]; Postemergence, 31 g ai/ha, scale 0 to 100 (0 no effect, 100 complete control), 13 to 15 days, read-out: Plant response rating, Nutsedge, Yellow): 10%
pest or weed control at 62 g/ha (yellow nutsedge [1]; Postemergence, 62 g ai/ha, scale 0 to 100 (0 no effect, 100 complete control), read-out: Plant response rating, Nutsedge, Yellow): 15%
pest or weed control at 62 g/ha (giant foxtail [2]; 62 g ai/ha, preemergence, scale 0 (no effect) to 100 (complete control), read-out: Foxtail, Giant plant response rating): 80%
pest or weed control at 125 g/ha (giant foxtail [2]; 125 g ai/ha, preemergence, scale 0 (no effect) to 100 (complete control), read-out: Foxtail, Giant plant response rating): 98%
pest or weed control at 250 g/ha (giant foxtail [2]; 250 g ai/ha, preemergence, scale 0 (no effect) to 100 (complete control), read-out: Foxtail, Giant plant response rating): 100%
pest or weed control at 31 g/ha (giant foxtail [2]; Preemergence, 31 g ai/ha, scale 0 to 100, 0 no effect, 100 complete control, read-out: Plant response rating, Foxtail, Giant): 40%
pest or weed control at 125 g/ha (pigweed [3]; [7]): 90%
pest or weed control at 500 g/ha (pigweed [3]; [8]): 100%
plant injury at 125 g/ha (corn; 125 g ai/ha, postemergence, read-out: Plant response rating (0 to 100), Corn): 60%
plant injury at 250 g/ha (corn; 250 g ai/ha, postemergence, read-out: Plant response rating (0 to 100), Corn): 75%
Corn plant response rating (crop injury, 0 = no effect, 100 = complete kill) at 62 g/ha (corn; Postemergence, 62 g ai/ha, scale 0 to 100 (0 no effect, 100 complete control)): 25%
pest or weed control at 125 g/ha (Italian ryegrass; 125 g ai/ha, postemergence, read-out: Plant response rating (0 to 100), Ryegrass, Italian): 10%
pest or weed control at 250 g/ha (Italian ryegrass; 250 g ai/ha, postemergence, read-out: Plant response rating (0 to 100), Ryegrass, Italian): 40%
pest or weed control at 31 g/ha (Italian ryegrass; Postemergence, 31 g ai/ha, scale 0 to 100 (0 no effect, 100 complete control), 13 to 15 days, read-out: Plant response rating, Ryegrass, Italian): 5%
pest or weed control at 62 g/ha (Italian ryegrass; Postemergence, 62 g ai/ha, scale 0 to 100 (0 no effect, 100 complete control), read-out: Plant response rating, Ryegrass, Italian): 10%
pest or weed control at 62 g/ha (yellow nutsedge [4]; 62 g ai/ha, preemergence, scale 0 (no effect) to 100 (complete control), read-out: Nutsedge, Yellow plant response rating): 0%
pest or weed control at 125 g/ha (yellow nutsedge [4]; 125 g ai/ha, preemergence, scale 0 (no effect) to 100 (complete control), read-out: Nutsedge, Yellow plant response rating): 15%
pest or weed control at 250 g/ha (yellow nutsedge [4]; 250 g ai/ha, preemergence, scale 0 (no effect) to 100 (complete control), read-out: Nutsedge, Yellow plant response rating): 15%
pest or weed control at 31 g/ha (yellow nutsedge [4]; Preemergence, 31 g ai/ha, scale 0 to 100, 0 no effect, 100 complete control, read-out: Plant response rating, Nutsedge, Yellow): 0%
pest or weed control at 125 g/ha (galium; 125 g ai/ha, postemergence, read-out: Plant response rating (0 to 100), Galium): 90%
pest or weed control at 250 g/ha (galium; 250 g ai/ha, postemergence, read-out: Plant response rating (0 to 100), Galium): 98%
pest or weed control at 31 g/ha (galium; Postemergence, 31 g ai/ha, scale 0 to 100 (0 no effect, 100 complete control), 13 to 15 days, read-out: Plant response rating, Galium): 65%
pest or weed control at 62 g/ha (galium; Postemergence, 62 g ai/ha, scale 0 to 100 (0 no effect, 100 complete control), read-out: Plant response rating, Galium): 80%
pest or weed control at 62 g/ha (pigweed [5]; 62 g ai/ha, preemergence, scale 0 (no effect) to 100 (complete control), read-out: Pigweed plant response rating): 100%
pest or weed control at 125 g/ha (pigweed [5]; 125 g ai/ha, preemergence, scale 0 (no effect) to 100 (complete control), read-out: Pigweed plant response rating): 100%
pest or weed control at 250 g/ha (pigweed [5]; 250 g ai/ha, preemergence, scale 0 (no effect) to 100 (complete control), read-out: Pigweed plant response rating): 100%
pest or weed control at 31 g/ha (pigweed [5]; Preemergence, 31 g ai/ha, scale 0 to 100, 0 no effect, 100 complete control, read-out: Plant response rating, Pigweed): 100%
plant injury at 125 g/ha (wheat, winter; 125 g ai/ha, postemergence, read-out: Plant response rating (0 to 100), Wheat): 10%
plant injury at 250 g/ha (wheat, winter; 250 g ai/ha, postemergence, read-out: Plant response rating (0 to 100), Wheat): 15%
plant injury at 31 g/ha (wheat, winter; Postemergence, 31 g ai/ha, scale 0 to 100 (0 no effect, 100 complete control), 13 to 15 days, read-out: Plant response rating, Wheat): 5%
plant injury at 62 g/ha (wheat, winter; Postemergence, 62 g ai/ha, scale 0 to 100 (0 no effect, 100 complete control), read-out: Plant response rating, Wheat): 5%
pest or weed control at 125 g/ha (velvetleaf; 125 g ai/ha, 0 to 100 scale where 0 is no effect and 100 is complete control, read-out: Plant response rating, Velvetleaf): 100%
pest or weed control at 500 g/ha (velvetleaf; 500 g ai/ha, 0 to 100 scale, 0 no effect, 100 complete control, read-out: Plant response rating Velvetleaf): 100%
pest or weed control at 125 g/ha (giant foxtail [6]; [7]): 100%
pest or weed control at 500 g/ha (giant foxtail [6]; [8]): 100%
plant injury at 250 g/ha (rice): 20%
